Source: ChEMBL document CHEMBL4834391, “Role of Ascaridole and p-Cymene in the Sleep-Promoting Effects of Dysphania ambrosioides Essential Oil via the GABAergic System in a ddY Mouse Inhalation Model” (J Nat Prod, 2021)
The source made the active and inactive calls. The calls are words filed in the database; no cut-off is given here.

What was measured:
[1] = Sedative activity in ddY mouse assessed as decrease in spontaneous locomotor activity at 0.004 mg administered via inhalation relative to control; parameters: scale not given: the % may be the effect or the level left; details: in vivo, inhaled_or_intranasal
[2] = Sedative activity in ddY mouse assessed as decrease in spontaneous locomotor activity at 0.4 mg administered via inhalation relative to control; parameters: scale not given: the % may be the effect or the level left; details: in vivo, inhaled_or_intranasal
[3] = Sedative activity in ddY mouse assessed as decrease in caffeine-induced spontaneous locomotor activity at 0.004 mg administered via inhalation post caffeine stimulation (reference value: 68 %); parameters: scale not given: the % may be the effect or the level left; details: in vivo, inhaled_or_intranasal
[4] = Sedative activity in ddY mouse assessed as decrease in spontaneous locomotor activity at 0.04 mg administered via inhalation relative to control; parameters: scale not given: the % may be the effect or the level left; details: in vivo, inhaled_or_intranasal
[5] = Sedative activity in ddY mouse assessed as decrease in spontaneous locomotor activity at 0.0004 mg administered via inhalation relative to control; parameters: scale not given: the % may be the effect or the level left; details: in vivo, inhaled_or_intranasal
Mus musculus [6] = test: Sleep-promoting activity in ddY mouse assessed as enhancement of pentobarbital-induced sleep resulting in prolonged sleeping time at 0.004 mg administered via inhalation relative to control; assay type: functional
[7] = Sedative activity in ddY mouse assessed as decrease in spontaneous locomotor activity at 0.00004 mg administered via inhalation relative to control; parameters: scale not given: the % may be the effect or the level left; details: in vivo, inhaled_or_intranasal, at 40 ng
Mus musculus [8] = test: Myorelaxant effect in ddY mouse assessed as decrease in endurance latency time at 0.004 mg administered via inhalation by rota-rod test; assay type: functional, organism-based
[9] = Sedative activity in ddY mouse assessed as decrease in spontaneous locomotor activity when administered via inhalation relative to control; parameters: scale not given: the % may be the effect or the level left; details: in vivo, inhaled_or_intranasal
[10] = Toxicity in mouse assessed as lethal dose; details: in vivo
Mus musculus [11] = test: Sleep-promoting activity in ddY mouse assessed as enhancement of pentobarbital-induced sleep resulting in prolonged sleeping time at 0.000004 mg administered via inhalation relative to control; assay type: functional; details: dose 4 ng
[12] = Sedative activity in ddY mouse assessed as decrease in caffeine-induced spontaneous locomotor activity at 0.000004 mg administered via inhalation post caffeine stimulation (reference value: 68 %); parameters: scale not given: the % may be the effect or the level left; details: in vivo, inhaled_or_intranasal, at 4 ng
Mus musculus [13] = test: Myorelaxant effect in ddY mouse assessed as decrease in endurance latency time at 0.000004 mg administered via inhalation by rota-rod test; assay type: functional, organism-based; details: dose 4 ng
Mus musculus [14] = test: Sleep-promoting activity in ddY mouse assessed as decrease in pentobarbital-induced sleep ing duration at 3 mg/kg relative to control; assay type: functional; parameters: scale not given: the % may be the effect or the level left
Mus musculus [15] = species: Mus musculus; test: Myorelaxant effect in ddY mouse assessed as decrease in endurance latency time by rota-rod test; assay type: functional, organism-based

Structure (SMILES)	Activity [1]	Activity [2]	Activity [3]	Activity [4]	Activity [5]	Activity (Mus musculus [6])	Activity [7]	Activity (Mus musculus [8])	Activity [9]	LD50 [10]	Activity (Mus musculus [11])	Activity [12]	Activity (Mus musculus [13])	Activity (Mus musculus [14])	Activity (Mus musculus [15])
CC(C)C12C=CC(C)(CC1)OO2 (configuration not stated) [ASCARIDOLE]	67%	56%	47%	64%	52%	42%	64%	inactive	56%	400 mg/kg	–	–	–	–	–
Cc1ccc(C(C)C)cc1 [P-CYMENE]	61%	68%	–	67%	57%	–	69%	–	63%	4750 mg/kg	77%	50%	inactive	–	–
CCOC(=O)c1ncn2c1CN(C)C(=O)c1cc(F)ccc1-2 [FLUMAZENIL]	–	–	–	–	–	–	–	–	–	–	–	–	–	31%	–
CN1C(=O)CN=C(c2ccccc2)c2cc(Cl)ccc21	–	–	–	–	–	–	–	–	–	–	–	–	–	–	Active
